pIC50: −log10 of the molar value.
Columns and labels:
[1] = target: T1, Bromodomain-containing protein 4 (Homo sapiens, UniProt O60885); experiment: Inhibition of His-tagged BRD4 bromodomain 1 (unknown origin) using [Lys (5,8,12,16) Ac] H4(1-21) as substrate by fluorescence based assay
[2] = target: Histone deacetylase 1 (Homo sapiens, UniProt Q13547); experiment: Inhibition of HDAC1 (unknown origin) by fluorescence based assay
[3] = target: T1, Bromodomain-containing protein 4; experiment: Inhibition of His-tagged BRD4 bromodomain 2 (unknown origin) using [Lys (5,8,12,16) Ac] H4(1-21) as substrate by fluorescence based assay
[4] = target: T2, Protein deacetylase HDAC6 (Homo sapiens, UniProt Q9UBN7); experiment: Inhibition of HDAC6 (unknown origin) by fluorescence based assay
T2 sequence (Q9UBN7 whole entry): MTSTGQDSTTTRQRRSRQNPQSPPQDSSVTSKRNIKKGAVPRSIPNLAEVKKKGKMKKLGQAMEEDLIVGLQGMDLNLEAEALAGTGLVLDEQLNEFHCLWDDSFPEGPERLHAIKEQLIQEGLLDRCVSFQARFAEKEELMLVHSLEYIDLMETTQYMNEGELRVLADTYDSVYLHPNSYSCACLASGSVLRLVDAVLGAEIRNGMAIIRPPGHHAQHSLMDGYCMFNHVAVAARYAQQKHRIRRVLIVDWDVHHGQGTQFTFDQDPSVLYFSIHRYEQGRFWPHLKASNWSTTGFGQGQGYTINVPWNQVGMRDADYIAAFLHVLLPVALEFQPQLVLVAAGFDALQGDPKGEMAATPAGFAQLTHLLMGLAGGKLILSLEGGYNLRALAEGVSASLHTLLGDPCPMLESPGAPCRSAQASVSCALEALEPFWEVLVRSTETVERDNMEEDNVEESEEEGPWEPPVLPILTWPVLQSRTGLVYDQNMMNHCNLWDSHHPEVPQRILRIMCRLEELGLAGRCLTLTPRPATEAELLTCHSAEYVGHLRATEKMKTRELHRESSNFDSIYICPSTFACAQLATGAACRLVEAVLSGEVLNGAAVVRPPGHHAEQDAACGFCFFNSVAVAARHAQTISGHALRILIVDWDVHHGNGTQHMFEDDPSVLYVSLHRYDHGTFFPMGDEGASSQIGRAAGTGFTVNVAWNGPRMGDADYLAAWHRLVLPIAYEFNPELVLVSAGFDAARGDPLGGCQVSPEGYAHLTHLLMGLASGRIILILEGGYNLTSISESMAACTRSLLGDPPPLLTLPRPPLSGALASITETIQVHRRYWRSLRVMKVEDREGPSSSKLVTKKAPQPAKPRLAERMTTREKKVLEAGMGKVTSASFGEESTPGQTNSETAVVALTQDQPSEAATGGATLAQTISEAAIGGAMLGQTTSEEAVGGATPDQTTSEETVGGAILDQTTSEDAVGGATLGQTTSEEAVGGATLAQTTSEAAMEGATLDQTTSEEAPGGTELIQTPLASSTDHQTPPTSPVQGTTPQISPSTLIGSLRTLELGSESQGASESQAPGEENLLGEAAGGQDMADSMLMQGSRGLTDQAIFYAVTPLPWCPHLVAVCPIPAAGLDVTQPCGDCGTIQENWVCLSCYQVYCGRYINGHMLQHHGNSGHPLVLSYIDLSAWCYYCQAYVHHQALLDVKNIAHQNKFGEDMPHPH

[5] = tested on: MV4-11; experiment: Antiproliferative activity against human MV4-11 cells assessed as cell viability after 72 hrs by CCK8 assay; format: functional, cell-based; settings: MV4-11, 72 h

Sequence of Histone deacetylase 1 (Q13547 whole entry): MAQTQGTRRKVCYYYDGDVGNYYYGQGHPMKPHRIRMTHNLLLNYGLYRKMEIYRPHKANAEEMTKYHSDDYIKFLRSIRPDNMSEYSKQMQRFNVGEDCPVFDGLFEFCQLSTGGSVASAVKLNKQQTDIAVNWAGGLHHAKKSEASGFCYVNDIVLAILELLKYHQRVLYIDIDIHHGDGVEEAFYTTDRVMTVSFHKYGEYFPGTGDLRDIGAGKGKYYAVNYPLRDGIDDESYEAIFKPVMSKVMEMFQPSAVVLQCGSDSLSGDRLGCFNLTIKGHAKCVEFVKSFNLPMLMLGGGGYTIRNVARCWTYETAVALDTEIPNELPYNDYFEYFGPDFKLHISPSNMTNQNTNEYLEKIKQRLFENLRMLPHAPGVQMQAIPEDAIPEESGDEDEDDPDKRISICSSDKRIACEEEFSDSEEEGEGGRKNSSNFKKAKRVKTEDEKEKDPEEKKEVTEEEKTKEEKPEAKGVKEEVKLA

| pIC50 [1] | pIC50 [2] | pIC50 [3] | pIC50 [4] | pIC50 [5] | SMILES |
| --- | --- | --- | --- | --- | --- |
| 6.85 | < 6.30 | 7.81 | < 6.30 | 6.89 | Cn1cc(-c2ccccc2Oc2ccccc2)c2cc(C(=O)NCCCCCCC(=O)Nc3ccccc3N)[nH]c2c1=O |
| 8.41 | 6.48 | 8.15 | – | 6.38 | COc1ccc(C(C)(C)O)cc1-c1cn(C)c(=O)c2[nH]c(C(=O)NCc3ccc(C(=O)Nc4ccccc4N)cc3)cc12 |
| 6.60 | 7.68 | 8.16 | 8.10 | 6.38 | Cn1cc(-c2cc(C(C)(C)O)ccc2OC2CC2)c2cc(C(=O)NCc3ccc(C(=O)NO)cc3)[nH]c2c1=O |
| 7.64 | 6.93 | 7.82 | – | 6.89 | CC(C)Oc1ccccc1-c1cn(C)c(=O)c2[nH]c(C(=O)NCc3ccc(C(=O)Nc4ccccc4N)cc3)cc12 |
| < 5.00 | – | < 5.00 | – | 6.62 | Nc1ccccc1NC(=O)c1ccc(CNC(=O)OCc2cccnc2)cc1 [ENTINOSTAT] |
| 6.43 | 6.68 | 6.24 | – | – | Cn1cc(-c2ccccc2C(F)(F)F)c2cc(C(=O)NCc3ccc(C(=O)Nc4ccccc4N)cc3)[nH]c2c1=O |
| 7.52 | 7.26 | 6.94 | – | 6.60 | COc1cccc(-c2cn(C)c(=O)c3[nH]c(C(=O)NCc4ccc(C(=O)Nc5ccccc5N)cc4)cc23)c1 |
| 6.99 | 7.31 | 6.69 | – | – | Cn1cc(-c2ccccc2Cl)c2cc(C(=O)NCc3ccc(C(=O)Nc4ccccc4N)cc3)[nH]c2c1=O |
| 7.29 | 7.27 | 7.12 | – | 6.68 | Cn1cc(-c2cccc(F)c2)c2cc(C(=O)NCc3ccc(C(=O)Nc4ccccc4N)cc3)[nH]c2c1=O |
| 7.50 | 7.44 | 8.00 | 7.28 | 6.46 | CC(C)Oc1ccc(C(C)(C)O)cc1-c1cn(C)c(=O)c2[nH]c(C(=O)NCc3ccc(C(=O)NO)cc3)cc12 |
| 6.23 | 6.75 | 8.08 | < 6.30 | 7.15 | Cn1cc(-c2ccccc2Oc2ccccc2)c2cc(C(=O)NCCCCCC(=O)Nc3ccccc3N)[nH]c2c1=O |
| 7.28 | 7.26 | 6.98 | – | – | Cc1cccc(-c2cn(C)c(=O)c3[nH]c(C(=O)NCc4ccc(C(=O)Nc5ccccc5N)cc4)cc23)c1 |
| 7.27 | 7.28 | 8.14 | 8.06 | 6.60 | Cn1cc(-c2cc(C(C)(C)O)ccc2Oc2ccc(F)cc2F)c2cc(C(=O)NCCCCCCC(=O)NO)[nH]c2c1=O |
| 6.52 | 6.53 | 8.82 | 7.41 | 6.36 | Cc1cc(F)cc(C)c1Oc1ccc(C(C)(C)O)cc1-c1cn(C)c(=O)c2[nH]c(C(=O)NCc3ccc(C(=O)NO)cc3)cc12 |
| 7.21 | 7.03 | 6.91 | – | – | Cc1ccc(-c2cn(C)c(=O)c3[nH]c(C(=O)NCc4ccc(C(=O)Nc5ccccc5N)cc4)cc23)cc1 |
| – | < 5.00 | – | < 5.00 | 6.60 | CCNC(=O)c1cc2c(-c3cc(C(C)(C)O)ccc3Oc3c(C)cc(F)cc3C)cn(C)c(=O)c2[nH]1 [ABBV-744] |
| 6.64 | < 6.30 | 7.44 | – | 6.62 | Cc1cc(F)cc(C)c1Oc1ccc(C(C)(C)O)cc1-c1cn(C)c(=O)c2[nH]c(C(=O)NCc3ccc(C(=O)Nc4ccccc4N)cc3)cc12 |
| 6.08 | < 6.30 | 6.50 | – | – | Cn1cc(-c2cccc(C(F)(F)F)c2)c2cc(C(=O)NCc3ccc(C(=O)Nc4ccccc4N)cc3)[nH]c2c1=O |

| pIC50 [1] | pIC50 [2] | pIC50 [3] | pIC50 [4] | pIC50 [5] | SMILES |
| --- | --- | --- | --- | --- | --- |
| 7.70 | 7.55 | 7.52 | – | 5.66 | Cn1cc(-c2cccc(C(C)(C)O)c2)c2cc(C(=O)NCc3ccc(C(=O)Nc4ccccc4N)cc3)[nH]c2c1=O |
| 8.11 | 7.16 | 8.68 | – | 7.40 | Cn1cc(-c2cc(C(C)(C)O)ccc2OC2CC2)c2cc(C(=O)NCc3ccc(C(=O)Nc4ccccc4N)cc3)[nH]c2c1=O |
| 7.65 | 7.24 | 7.32 | – | 6.70 | COc1ccccc1-c1cn(C)c(=O)c2[nH]c(C(=O)NCc3ccc(C(=O)Nc4ccccc4N)cc3)cc12 |
| 7.14 | < 6.30 | 7.95 | < 6.30 | 6.62 | Cn1cc(-c2ccccc2Oc2ccccc2)c2cc(C(=O)NCCCCC(=O)Nc3ccccc3N)[nH]c2c1=O |
| 7.36 | 7.33 | 7.10 | – | 6.66 | Cn1cc(-c2ccc(F)cc2)c2cc(C(=O)NCc3ccc(C(=O)Nc4ccccc4N)cc3)[nH]c2c1=O |
| 7.18 | 6.87 | 6.80 | – | 6.72 | Cn1cc(-c2cccc(Cl)c2)c2cc(C(=O)NCc3ccc(C(=O)Nc4ccccc4N)cc3)[nH]c2c1=O |
| 7.07 | 7.68 | 7.26 | – | 6.64 | Cn1cc(-c2ccccc2F)c2cc(C(=O)NCc3ccc(C(=O)Nc4ccccc4N)cc3)[nH]c2c1=O |
| 7.39 | 7.33 | 7.21 | – | 6.49 | COc1ccc(-c2cn(C)c(=O)c3[nH]c(C(=O)NCc4ccc(C(=O)Nc5ccccc5N)cc4)cc23)cc1 |
| 7.20 | 7.23 | 6.56 | – | – | Cn1cc(-c2ccc(Cl)cc2)c2cc(C(=O)NCc3ccc(C(=O)Nc4ccccc4N)cc3)[nH]c2c1=O |
| 7.87 | 6.64 | 8.52 | – | 7.00 | Cn1cc(-c2cc(C(C)(C)O)ccc2Oc2ccccc2)c2cc(C(=O)NCc3ccc(C(=O)Nc4ccccc4N)cc3)[nH]c2c1=O |
| < 5.00 | – | < 5.00 | – | – | O=C(CCCCCCC(=O)Nc1ccccc1)NO [VORINOSTAT] |
| 7.74 | 6.79 | 8.82 | – | 7.05 | Cn1cc(-c2cc(C(C)(C)O)ccc2Oc2ccc(F)cc2F)c2cc(C(=O)NCc3ccc(C(=O)Nc4ccccc4N)cc3)[nH]c2c1=O |
| 7.12 | 7.13 | 7.91 | 7.81 | 6.72 | Cn1cc(-c2cc(C(C)(C)O)ccc2Oc2ccc(F)cc2F)c2cc(C(=O)NCc3ccc(C(=O)NO)cc3)[nH]c2c1=O |
| 6.85 | < 6.30 | 6.99 | 6.84 | 6.42 | Cn1cc(-c2ccccc2Oc2ccccc2)c2cc(C(=O)NCCCC(=O)NO)[nH]c2c1=O |
| 6.84 | 6.62 | 6.44 | – | – | Cn1cc(-c2ccc(C(F)(F)F)cc2)c2cc(C(=O)NCc3ccc(C(=O)Nc4ccccc4N)cc3)[nH]c2c1=O |
| 6.93 | 7.19 | 6.83 | – | 6.51 | Cc1ccccc1-c1cn(C)c(=O)c2[nH]c(C(=O)NCc3ccc(C(=O)Nc4ccccc4N)cc3)cc12 |
| 7.32 | 7.28 | 7.12 | – | 6.64 | Cn1cc(-c2ccccc2)c2cc(C(=O)NCc3ccc(C(=O)Nc4ccccc4N)cc3)[nH]c2c1=O |

| SMILES | pIC50 [1] | pIC50 [2] | pIC50 [3] | pIC50 [4] | pIC50 [5] |
| --- | --- | --- | --- | --- | --- |
| Cc1sc2c(c1C)C(c1ccc(Cl)cc1)=N[C@@H](CC(=O)Nc1ccc(O)cc1)c1nnc(C)n1-2 [BIRABRESIB] | – | < 5.00 | – | < 5.00 | 6.70 |

— ChEMBL document CHEMBL4732071, “Discovery of selective HDAC/BRD4 dual inhibitors as epigenetic probes” (Eur J Med Chem, 2021)
